Data as given in patent US9828366B2, “Bicyclic derivatives and pharmaceutical composition including the same” (HANMI PHARM. CO., LTD., priority 2014, dated 2017).

What follows are compounds tested on C57BL/6 male mice (assay: Urinary glucose excretion test (UGE test)). Conditions: 10 mg/kg oral (Examples 1 to 12), 2 g/kg glucose after 30 minutes, urine collected for 24 hours.
Assay type: in vivo
Description: The pharmaceutical efficacies of the compounds prepared in the Examples were investigated by a urinary glucose excretion test using C57BL/6 male mice (8-week-old, prepared and supplied from Orient Chemical Co. Ltd.).
Two mice were used in each group. The mice were fasted for 16 hours, and the compound of each of the Examples [10 mg/kg of the compound of Examples 1 to 12; and 3 mg/kg of the compound of Examples 13 to 38] was dissolved in a vehicle [a mixed solution of 5% 1-methyl-2-pyrrolidinone, 20% PEG, and 75% 20 mM sodium diphosphate], and orally administered to the mice. After 30 minutes, 2 g/kg of glucose was orally administered to the mice in all the groups. Thereafter, the mice were immediately put into a metabolic cage, and urine was collected for 24 hours. The mice were freely fed an hour after the administration of glucose.
The results obtained from the test, that is, the results obtained by measuring urinary glucose excretion in the C57BL/6 male mice according to the compounds of the Examples, are listed in Table 5.
With CCOc1ccc(Cc2cc([C@@H]3O[C@H](CO)[C@@H](O)[C@H](O)[C@H]3O)cc3c2OCC3)cc1 [Example 1, (2S,3R,4R,5S,6R)-2-(7-(4-ethoxybenzyl)-2,3-dihydrobenzofuran-5-yl)-6-hydroxymethyl-tetrahydro-2H-pyran-3,4,5-triol] the UGE was 1.2 mg/20 g/24 hr.
In the case of CCc1ccc(Cc2cc([C@@H]3O[C@H](CO)[C@@H](O)[C@H](O)[C@H]3O)cc3c2OCC3)cc1 [Example 2, (2S,3R,4R,5S,6R)-2-(7-(4-ethylbenzyl)-2,3-dihydrobenzofuran-5-yl)-6-hydroxymethyl-tetrahydro-2H-pyran-3,4,5-triol], the UGE is reported as 8.3 mg/20 g/24 hr.
CCCc1ccc(Cc2cc([C@@H]3O[C@H](CO)[C@@H](O)[C@H](O)[C@H]3O)cc3c2OCC3)cc1 [Example 3, (2R,3S,4R,5R,6S)-2-hydroxymethyl-6-(7-(4-n-propylbenzyl)-2,3-dihydrobenzofuran-5-yl)-tetrahydro-2H-pyran-3,4,5-triol] showed a UGE of 3.7 mg/20 g/24 hr.
For OC[C@H]1O[C@@H](c2cc3c(c(Cc4ccc(C(F)(F)F)cc4)c2)OCC3)[C@H](O)[C@@H](O)[C@@H]1O [Example 4, (2R,3S,4R,5R,6S)-2-hydroxymethyl-6-(7-(4-trifluoromethylbenzyl)-2,3-dihydrobenzofuran-5-yl)tetrahydro-2H-pyran-3,4,5-triol], the UGE was 4.6 mg/20 g/24 hr.
OC[C@H]1O[C@@H](c2cc3c(c(Cc4ccc(OC(F)(F)F)cc4)c2)OCC3)[C@H](O)[C@@H](O)[C@@H]1O [Example 5, (2R,3S,4R,5R,6S)-2-hydroxymethyl-6-(7-(4-trifluoromethoxybenzyl)-2,3-dihydrobenzofuran-5-yl)tetrahydro-2H-pyran-3,4,5-triol] showed a UGE of 3.7 mg/20 g/24 hr.
In the case of OC[C@H]1O[C@@H](c2cc3c(c(Cc4ccc(F)cc4)c2)OCC3)[C@H](O)[C@@H](O)[C@@H]1O [Example 6, (2S,3R,4R,5S,6R)-2-(7-(4-fluorobenzyl)-2,3-dihydrobenzofuran-5-yl)-6-(hydroxymethyl)tetrahydro-2H-pyran-3,4,5-triol], the UGE is reported as 3.9 mg/20 g/24 hr.
For OC[C@H]1O[C@@H](c2cc3c(c(Cc4ccc5c(c4)OCCO5)c2)OCC3)[C@H](O)[C@@H](O)[C@@H]1O [Example 7, (2S,3R,4R,5S,6R)-2-(7-((2,3-dihydrobenzo[b][1,4]dioxin-6-yl)methyl)-2,3-dihydrobenzofuran-5-yl)-6-(hydroxymethyl)tetrahydro-2H-pyran-3,4,5-triol], the UGE was 2.8 mg/20 g/24 hr.
Compound OC[C@H]1O[C@@H](c2cc3c(c(Cc4ccc(OCC5CC5)cc4)c2)OCC3)[C@H](O)[C@@H](O)[C@@H]1O [Example 8, (2S,3R,4R,5S,6R)-2-(7-(4-(cyclopropylmethoxy)benzyl)-2,3-dihydrobenzofuran-5-yl)-6-(hydroxymethyl)tetrahydro-2H-pyran-3,4,5-triol] has a UGE of 4.3 mg/20 g/24 hr.
With CCOc1ccc(Cc2cc([C@@H]3O[C@H](CO)[C@@H](O)[C@H](O)[C@H]3O)cc3c2OCC3)cc1F [Example 9, (2S,3R,4R,5S,6R)-2-(7-(4-ethoxy-3-fluorobenzyl)-2,3-dihydrobenzofuran-5-yl)-6-(hydroxymethyl)tetrahydro-2H-pyran-3,4,5-triol] the UGE was 4.6 mg/20 g/24 hr.
Compound CCOc1ccc(Cc2cc([C@@H]3O[C@H](CO)[C@@H](O)[C@H](O)[C@H]3O)cc3c2OCC3)c(F)c1 [Example 10, (2S,3R,4R,5S,6R)-2-(7-(4-ethoxy-2-fluorobenzyl)-2,3-dihydrobenzofuran-5-yl)-6-(hydroxymethyl)tetrahydro-2H-pyran-3,4,5-triol] has a UGE of 3.2 mg/20 g/24 hr.
For OC[C@H]1O[C@@H](c2cc3c(c(Cc4ccc(O)cc4)c2)OCC3)[C@H](O)[C@@H](O)[C@@H]1O [Example 11, (2S,3R,4R,5S,6R)-2-(7-(4-hydroxybenzyl)-2,3-dihydrobenzofuran-5-yl)-6-(hydroxymethyl)tetrahydro-2H-pyran-3,4,5-triol], the UGE was 3.0 mg/20 g/24 hr.
With CS(=O)(=O)CCCOc1ccc(Cc2cc(C3O[C@H](CO)[C@@H](O)[C@H](O)[C@H]3O)cc3c2OCC3)cc1 (stereo partly drawn) [Example 12] the UGE was 0 mg/20 g/24 hr.
